ChEMBL document CHEMBL1136294, “Aryloxazolidinediones: identification of potent orally active PPAR dual alpha/gamma agonists” (Bioorg Med Chem Lett, 2003)

Columns and labels:
[1] = molecular target: T1, Peroxisome proliferator-activated receptor delta (Homo sapiens, UniProt Q03181)
T1 sequence (Q03181 whole entry): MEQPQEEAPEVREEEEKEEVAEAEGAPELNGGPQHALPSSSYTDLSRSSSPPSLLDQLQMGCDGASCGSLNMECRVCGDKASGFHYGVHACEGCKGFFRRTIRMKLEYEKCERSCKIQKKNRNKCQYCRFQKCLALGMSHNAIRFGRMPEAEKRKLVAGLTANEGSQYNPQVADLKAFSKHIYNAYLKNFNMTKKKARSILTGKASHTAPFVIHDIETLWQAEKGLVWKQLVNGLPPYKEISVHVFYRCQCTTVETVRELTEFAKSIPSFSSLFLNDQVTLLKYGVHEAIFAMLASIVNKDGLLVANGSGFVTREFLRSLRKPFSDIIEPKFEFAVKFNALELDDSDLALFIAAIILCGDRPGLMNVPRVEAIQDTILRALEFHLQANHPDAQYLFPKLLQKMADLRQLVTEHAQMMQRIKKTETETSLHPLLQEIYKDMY
Description: In vitro binding affinity was tested towards human Peroxisome proliferator activated receptor delta

[2] = molecular target: T1, Peroxisome proliferator-activated receptor delta; type: functional
Description: In vitro activity in human Peroxisome proliferator activated receptor delta-transactivation assay

in vivo [3] = details: Sprague-Dawley, rat, po, 2 mg/kg
Description: Clearance in Sprague-Dawley rats after 2mg/kg oral dose

in vivo [4] = details: Sprague-Dawley, rat, po
Description: Oral bioavailability in rat (Sprague-Dawley)

Rattus norvegicus [5] = organism: Rattus norvegicus; details: in vivo
Description: Area under curve in SD rats

in vivo [6] = details: Sprague-Dawley, rat
Description: Half life period in SD rats

[7] = molecular target: T2, Peroxisome proliferator-activated receptor alpha (Homo sapiens, UniProt Q07869)
T2 sequence (Q07869 whole entry): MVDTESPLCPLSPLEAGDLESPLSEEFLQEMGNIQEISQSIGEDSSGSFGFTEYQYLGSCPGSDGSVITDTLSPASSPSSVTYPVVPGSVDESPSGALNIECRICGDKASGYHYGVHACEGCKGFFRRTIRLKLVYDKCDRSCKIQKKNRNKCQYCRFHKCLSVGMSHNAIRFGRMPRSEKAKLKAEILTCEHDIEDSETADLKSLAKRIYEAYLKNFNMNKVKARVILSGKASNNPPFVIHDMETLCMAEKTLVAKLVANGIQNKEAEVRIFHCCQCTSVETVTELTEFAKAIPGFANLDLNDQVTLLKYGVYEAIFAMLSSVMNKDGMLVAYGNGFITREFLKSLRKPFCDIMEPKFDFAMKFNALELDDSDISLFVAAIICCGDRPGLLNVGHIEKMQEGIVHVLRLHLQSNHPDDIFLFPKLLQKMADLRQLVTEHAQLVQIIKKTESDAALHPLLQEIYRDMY
Description: In vitro binding affinity was tested towards human Peroxisome proliferator activated receptor alpha

Rattus norvegicus [8] = organism: Rattus norvegicus; details: in vivo, po
Description: Area under curve for a 2-mpk po dose in SD rats

[9] = molecular target: T2, Peroxisome proliferator-activated receptor alpha; type: functional
Description: In vitro activity in human Peroxisome proliferator activated receptor alpha-transactivation assay

Row | IC50 [1] [µM] | EC50 [2] [µM] | SMILES | also measured
1 | > 50 | – | CCCc1cc(C2CCC(O)CC2)ccc1OCCCOc1cccc(C2OC(=O)NC2=O)c1 (stereo unspecified) | –
2 | 3.85 | – | CCCc1cc(C2CCCC2)ccc1OCCCOc1cccc(C2OC(=O)NC2=O)c1 (stereo unspecified) | –
3 | > 50 | > 3 | CCCc1cc(C(=O)c2ccc(Cl)cc2)ccc1OCCCOc1cccc(C2SC(=O)NC2=O)c1 (stereo unspecified) | –
4 | > 50 | > 3 | CCCc1cc(C=C2CCCCC2)ccc1OCCCOc1cccc(C2SC(=O)NC2=O)c1 (stereo unspecified) | –
5 | > 50 | – | CCCc1cc(C2CCOCC2)ccc1OCCCOc1cccc(C2OC(=O)NC2=O)c1 (stereo unspecified) | –
6 | 0.92 | – | CCCc1cc(OC2CCCC2)ccc1OCCCOc1cccc(C2SC(=O)NC2=O)c1 (stereo unspecified) | –
7 | > 50 | > 3 | CCCc1cc(C2CCCCCC2)ccc1OCCCOc1cccc(C2OC(=O)NC2=O)c1 (stereo unspecified) | –
8 | > 50 | – | CCCc1cc(OC2CCCCCC2)ccc1OCCCOc1cccc(C2SC(=O)NC2=O)c1 (stereo unspecified) | –
9 | > 50 | > 3 | CCCc1cc(C2CCCCC2)ccc1OCCCOc1cccc(C2OC(=O)NC2=O)c1 (stereo unspecified) | –
10 | > 50 | > 3 | CCCc1cc(C2CCC(C)(C)CC2)ccc1OCCCOc1cccc(C2OC(=O)NC2=O)c1 (stereo unspecified) | –
11 | > 50 | > 3 | CCCc1cc(C(=O)C2CCCCC2)ccc1OCCCOc1cccc(C2SC(=O)NC2=O)c1 (stereo unspecified) | CL/F (in vivo [3]): 29.5 mL/min/kg; bioavailability (in vivo [4]): 7.8%; AUC (Rattus norvegicus [5]): 0.07 µM
12 | > 50 | > 3 | CCCc1cc(OC2CCCCC2)ccc1OCCCOc1cccc(C2SC(=O)NC2=O)c1 (stereo unspecified) | bioavailability (in vivo [4]): 10%; AUC (Rattus norvegicus [5]): 0.3 µM
13 | > 5 | > 3 | CCCc1ccccc1OCCCOc1cccc(C2OC(=O)NC2=O)c1 (stereo unspecified) | half-life (in vivo [6]): 3.6 h; bioavailability (in vivo [4]): 27%; IC50 [7]: 0.08 µM; AUC (Rattus norvegicus [8]): 1.1 µM; EC50 [9]: 0.053 µM
14 | > 50 | > 3 | CCCc1cc(CC2CCCCC2)ccc1OCCCOc1cccc(C2SC(=O)NC2=O)c1 (stereo unspecified) | –
15 | 1.51 | > 3 | CCCc1cc(-c2ccccc2)ccc1OCCCOc1cccc(C2OC(=O)NC2=O)c1 (stereo unspecified) | –
16 | 0.17 | > 3 | CCCc1cc(C(=O)c2ccccc2)ccc1OCCCOc1cccc(C2SC(=O)NC2=O)c1 (stereo unspecified) | –
17 | > 50 | > 3 | CCCc1cc(C2CCC(F)(F)CC2)ccc1OCCCOc1cccc(C2OC(=O)NC2=O)c1 (stereo unspecified) | –
18 | 0.14 | – | CCCc1cc(-c2noc3ccccc23)ccc1OCCCOc1cccc(C2SC(=O)NC2=O)c1 (stereo unspecified) | –
19 | > 50 | – | CCCc1cc(C2CCC(=O)CC2)ccc1OCCCOc1cccc(C2OC(=O)NC2=O)c1 (stereo unspecified) | –
